Data on 16 compounds can be found in patent publication US20100298377A1, “NOVEL SUBSTITUTED INDAZOLES, THE PREPARATION THEREOF AND USE OF SAME IN THERAPEUTICS” (SANOFI-AVENTIS, priority 2007, published 2010).

Test [1] deals with MEF-IGF1 murine fibroblast cells. Put plainly: IGF1-dependent proliferation of MEF-IGF1 cells via incorporation of [14C]-thymidine. The class given is cell-based. The settings on record: Mus musculus, Fibroblast; [14C]-thymidine incorporation, IGF1 stimulated, 72 hours; read-out: IC50 MEF-IGF. The source says:
a. Study of the IGF1-Dependent Proliferation of MEF-IGF1 Murine Fibroblast Cells Measured via Incorporation of [14C]-Thymidine
This test is based on the incorporation of [^14C]-thymidine into the DNA of the cells for the S phase of the cell cycle during cell division. The cell line used in this test is the MEF/3T3 Tet-Off Clone 18 line obtained by stable transfection of the human receptor IGF1R in murine MEF/3T3 Tet-Off fibroblasts. To measure the IGF1-dependent cell proliferation, the cells were deprived of serum and cultured for 3 days in the serum-free culture medium in the presence of the growth factor IGF1 which stimulates the proliferation of MEF-IGF1 cells.
Test of Incorporation of [^14C]-Thymidine into MEF-IGF1 Cells
On day 1, the cells were inoculated with 7500 cells per well in Cytostar 96-well microplates (Amersham (GE) RPNQ0162) in 200 μl of EMEM medium (EMEM, Biowhittaker, #BE12-662F) containing 10% foetal calf serum (FCS, TET-BD Biosciences Tet System Approved FBS US-Sourced, #8630-1) and 1% PSG (Penicillin-Streptomycin-Glutamine (PSG), Gibco #10378-016), and incubated at 37° C., 5% CO2, for 24 hours. On day 2, the cells were washed in the FCS-free EMEM culture medium containing 1% PSG, and incubated in 170 μl of this serum-free culture medium at 37° C., 5% CO2, for 24 hours. On day 3, the cells were incubated with 10 μl of IGF1 (2 μg/ml of final concentration; recombinant human IGF-1, R & D Systems, #291-G1), 10 μl (0.1 μCi) of [^14C]-Thymidine (NEN NEC-568) plus 10 μl of increasing concentrations of the test molecules, diluted in dimethyl sulfoxide (DMSO, Sigma D2650). The molecules were added in a volume of 10 μl of a 20-fold concentrated solution in a final volume of 200 μl, the final percentage of DMSO being 0.1%. The treated cells were incubated at 37° C., 5% CO2, for 72 hours. The incorporation of [^14C]-Thymidine was quantified in cpm units (counts per minute) by counting the radioactivity 72 hours after the start of the treatment, using a Micro-Beta radioactivity counter (Perkin-Elmer). The tests were performed in duplicate.
i) the mean±s.e.m. of each series of well replicates was calculated;
ii) the background noise is calculated by preparing cell-free, IGF1-free and untreated control wells; this control was performed in 4 replicates. The background noise was removed at each measurement;
iii) the maximum response is given by positive control wells containing cells in the presence of IGF1 but untreated; this control was performed in 4 replicates;
iv) the minimum response is given by negative control wells containing IGF1-free and untreated cells; this control was performed in 4 replicates;
The IC50 values were calculated by […] with the XLfit software (IDBS, UK) using formula 205.

The target in the next test is AKT1 (Homo sapiens, UniProt P31749, S473D). Put plainly: Determination of the IC50 for AKT1 (HTRF). Type of test: biochemical. The note with it: AKT1 without PH domain, activated by PDK1. An outline of the steps: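 HTRF assay of AKT1 (S473D) kinase activity on a biotinylated peptide substrate, with 100 μM ATP and 10 μM peptide in the initiating solution.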
For orientation: Time-resolved FRET reads energy transfer from a long-lived donor to a nearby acceptor.

The target of test [2] is T1, Human S6K1 (24-421) T412E protein (Homo sapiens, UniProt P23443, T412E).
T1 construct: Human S6K1 (24-421) T412E protein; made in house; host or cells: Sf21 insect cells
Put plainly: Determination of the IC50 for S6K1 (HTRF substrate phosphorylation test). The class given is biochemical. The settings on record: S6K1 activated by PDK1, ATP 30 μM. How it is done: Determination of the IC50 for S6K1
The inhibitory potential of the compounds for S6K1 is evaluated in an enzymatic test of phosphorylation of substrate in HTRF (Homogenous Time-Resolved Fluorescence) format. Human S6K1 (24-421) T412E protein is expressed in sf21 cells and purified by chromatography on a nickel chelate column. It is activated by PDK1.
The test comprises two steps, both performed at RT. The phosphorylation reaction takes place during the first step and the revelation step is performed during the second. […] The final concentrations of compounds thus obtained during the incubation period range from 10 μM to 0.17 nM and the concentration of enzyme is 2 nM. After incubation for 20 minutes, the reaction is stopped and the revelation initiated by addition of 30 μl of a mixture of streptavidin XL 665 Xlent, ref. 611SAXLB Cis bio international, and a europium cryptate-coupled anti-phospho-GSK3 antibody, ref. 64CUSKAZ Cis bio international, dissolved in the revelation buffer (HEPES/NaOH 166.7 mM, EDTA 221.7 mM, KF 667.7 mM, BSA 0.167%, pH 7.0). The reaction takes place in a black half-well plate ref. 3694 Costar.
A mixture of the reaction medium after each addition of reagent is obtained by agitation for a few minutes at 700-1000 rpm on a Heidolph Titramax 100 machine. The reading is taken on a TECAN Ultra Evolution machine after at least one night and up to 3 nights at 4° C. The reading settings are as follows: excitation wavelength 320 nm, emission wavelengths 620 and 665 nm, lag time 150 μs, integration time 500 μs.
For each point, the ΔF % is calculated as follows:
R(Ratio)=counts665 nm/counts620 nm
The IC50 values are calculated by means of the XLfit4 205 equation.

What is called IC50 is the concentration that inhibits the measured activity by half.

Sequence of AKT1 (P31749 118-480 S473D limits assumed): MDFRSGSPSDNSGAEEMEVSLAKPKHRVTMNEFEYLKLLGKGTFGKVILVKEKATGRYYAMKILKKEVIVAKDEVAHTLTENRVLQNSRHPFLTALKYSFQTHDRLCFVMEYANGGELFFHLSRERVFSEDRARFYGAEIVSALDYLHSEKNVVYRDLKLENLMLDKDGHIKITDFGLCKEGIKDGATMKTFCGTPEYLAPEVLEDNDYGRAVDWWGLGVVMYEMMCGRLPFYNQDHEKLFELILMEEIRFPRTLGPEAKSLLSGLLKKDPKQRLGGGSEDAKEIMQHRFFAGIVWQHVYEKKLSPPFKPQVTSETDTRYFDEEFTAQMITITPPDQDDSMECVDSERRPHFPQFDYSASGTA
T1 sequence (P23443 24-421 T412E): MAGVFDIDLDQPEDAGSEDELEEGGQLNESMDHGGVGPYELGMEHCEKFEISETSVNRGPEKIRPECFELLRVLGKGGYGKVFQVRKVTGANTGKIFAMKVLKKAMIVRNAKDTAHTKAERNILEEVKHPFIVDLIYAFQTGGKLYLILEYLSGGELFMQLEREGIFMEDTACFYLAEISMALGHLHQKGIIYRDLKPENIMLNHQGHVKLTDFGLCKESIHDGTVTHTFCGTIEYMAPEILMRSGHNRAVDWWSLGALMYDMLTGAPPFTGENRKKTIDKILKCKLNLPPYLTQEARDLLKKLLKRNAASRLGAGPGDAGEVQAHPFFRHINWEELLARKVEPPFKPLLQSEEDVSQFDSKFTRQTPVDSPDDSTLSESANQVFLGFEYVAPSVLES

For `CN1CCCCC1C(NC(=O)Nc1ccc2[nH]nc(-c3ccncc3)c2c1)c1ccccc1` [Ex 13, 1-[(1-Methylpiperid-2-yl)(phenyl)methyl]-3-(3-pyrid-4-yl-1H-indazol-5-yl)urea((S,2S),(R,2R))], the IC50 is 5120 nM in test [1], 100 to 500 nM against AKT1 and 500 to 2000 nM in test [2].
For the compound `CN1CCCCC1C(NC(=O)Nc1ccc2[nH]ncc2c1)c1cc(F)cc(Cl)c1` (stereo not drawn) [Ex 11, 1-[(3-Chloro-5-fluorophenyl)(1-methylpiperid-2-yl)methyl]-3-(1H-indazol-5-yl)urea], the concentration for half-maximal inhibition (IC50) is 2920 nM in test [1], less than 100 nM at AKT1 and 500 to 2000 nM in test [2].
On to `O=C(Nc1ccc2[nH]ncc2c1)O[C@H](c1ccc(Cl)c(Cl)c1)[C@H]1CCCCN1` [Ex 37, (R)-(3,4-Dichlorophenyl)[(2R)-piperid-2-yl]methyl 1H-indazol-5-ylcarbamate], for which the half-maximal inhibitory concentration (IC50) in test [1] was 278 nM; at AKT1, less than 100 nM; in test [2], 100 to 500 nM.
For `O=C(Nc1ccc2[nH]ncc2c1)NC(c1cc(F)cc(Cl)c1)C1CCCCN1` (stereo not drawn) [Ex 5, 1-[(3-Chloro-5-fluorophenyl)(piperid-2-yl)methyl]-3-(1H-indazol-5-yl)urea] the same measures were less than 100 nM, less than 100 nM and 100 to 500 nM.
Regarding `O=C(Nc1ccc2[nH]ncc2c1)O[C@@H](c1cccc(Br)c1)[C@@H]1CCCCN1` [Ex 46], the values for the IC50 (in test [1]; on AKT1; in test [2]) were 546 nM, less than 100 nM and 100 to 500 nM, respectively.
Consider `Cc1n[nH]c2ccc(NC(=O)NC(c3ccccc3)C3CCCCN3C)cc12` [Ex 18, 3-Methyl-5-({[(1-methylpiperid-2-yl)(phenyl)methyl]carbamoyl}amino)-1H-indazole ((S,2S),(R,2R))], for which the IC50 is 290 nM in test [1], less than 100 nM at AKT1 and 500 to 2000 nM in test [2].
Regarding `CN1CCCCC1C(NC(=O)Nc1ccc2[nH]nc(C#Cc3ccc(F)cc3)c2c1)c1ccccc1` [Ex 24, 1-{3-[(4-Fluorophenyl)ethynyl]-1H-indazol-5-yl}-3-[(1-methylpiperid-2-yl)(phenyl)methyl]urea((S,2S),(R,2R))], the IC50 in test [1] was 860 nM; on AKT1 it was less than 100 nM; in test [2], 100 to 500 nM.
The matching figures for `S=C(Nc1ccc2[nH]ncc2c1)N[C@@H](c1ccc(Cl)c(Cl)c1)[C@@H]1CCCCN1` [Ex 31, 1-{(S)-(3,4-Dichlorophenyl)[(2S)-piperid-2-yl]methyl}-3-(1H-indazol-5-yl)thiourea]: 1270 nM, less than 100 nM and 100 to 500 nM.
For `O=C(Nc1ccc2[nH]ncc2c1)O[C@@H](c1ccc(Cl)c(Cl)c1)[C@@H]1CCCCN1` [Ex 38b, (S)-(3,4-Dichlorophenyl)[(2S)-piperid-2-yl]methyl 1H-indazol-5-ylcarbamate], the IC50 was 963 nM in test [1], less than 100 nM at AKT1 and 100 to 500 nM in test [2].
For `O=C(Nc1ccc2[nH]ncc2c1)N[C@@H](c1ccc(Cl)c(Cl)c1)[C@@H]1CCCCN1` [Ex 4, 1-{(S)-(3,4-Dichlorophenyl)[(2S)-piperid-2-yl]methyl}-3-(1H-indazol-5-yl)urea] the same measures were 500 nM, less than 100 nM and 100 to 500 nM.
For `O=C(Nc1ccc2[nH]ncc2c1)O[C@@H](c1cc(F)cc(Cl)c1)[C@@H]1CCCCN1` [Ex 35, (S)-(3-Chloro-5-fluorophenyl)[(2S)-piperid-2-yl]methyl 1H-indazol-5-ylcarbamate] the same measures were 560 nM, less than 100 nM and 100 to 500 nM.
In the case of `CN1CCCCC1C(NC(=O)Nc1cc(F)c2[nH]ncc2c1)c1ccccc1` [Ex 21, 1-(7-Fluoro-1H-indazol-5-yl)-3-[(1-methylpiperid-2-yl)(phenyl)methyl]urea((S,2S),(R,2R))], the half-inhibitory concentration (IC50) in test [1] is 2820 nM; against AKT1 it was 100 to 500 nM; in test [2], 500 to 2000 nM.
For `CN1CCCCC1C(OC(=O)Nc1ccc2[nH]ncc2c1)c1cc(F)cc(Cl)c1` (stereo not drawn) [Ex 36, (3-Chloro-5-fluorophenyl)(1-methylpiperid-2-yl)methyl 1H-indazol-5-ylcarbamate] the same measures were 770 nM, less than 100 nM and 500 to 2000 nM.
For `O=C(Nc1ccc2[nH]ncc2c1)N[C@@H](c1cc(F)cc(Cl)c1)[C@@H]1CCCCN1` [Ex 3, 1-{(S)-(3-Chloro-5-fluorophenyl)[(2S)-piperid-2-yl]methyl}-3-(1H-indazol-5-yl)urea] the same measures were 790 nM, less than 100 nM and 100 to 500 nM.
In the case of `O=C(Nc1ccc2[nH]ncc2c1)OC(c1cc(Cl)cc(Cl)c1)C1CCCCN1` [Ex 34, (3,5-Dichlorophenyl)[piperid-2-yl]methyl 1H-indazol-5-ylcarbamate((S,2S),(R,2R))], the IC50 was 600 nM in test [1], less than 100 nM on AKT1 and 500 to 2000 nM in test [2].
For `CN1CCCCC1C(NC(=O)Nc1ccc2[nH]nc(C#Cc3cccnc3)c2c1)c1ccccc1` [Ex 25, 1-[(1-Methylpiperid-2-yl)(phenyl)methyl]-3-[3-(pyrid-3-ylethynyl)-1H-indazol-5-yl]urea((S,2S),(R,2R))] the same measures were 366 nM, less than 100 nM and 100 to 500 nM.
